Patent US9650395B2, “Antibacterial compounds and methods for use” (PTC Therapeutics, Inc., priority 2011, dated 2017)
Converted amounts (≈) assume the structure as drawn. Where two headings read alike, the source gives them in different places.

Columns and labels:
[1] = tested on: super sensitive Gram-negative Escherichia coli (E. coli) BAS849; assay: Antibacterial activity, microbroth dilution MIC, E. coli BAS849; type: cell-based; conditions: Escherichia coli, read-out: MIC, BAS849
[2] = tested on: Gram-positive Staphylococcus aureus (S. aureus) 29213; assay: Antibacterial activity, microbroth dilution MIC, S. aureus 29213; type: cell-based; conditions: Staphylococcus aureus; S. aureus 29213, microbroth dilution; read-out: MIC, 29213
[3] = tested on: E. coli ELZ4000 (MDR clinical isolate); assay: Antibacterial activity, MIC, MDR E. coli ELZ4000; type: cell-based, Escherichia coli; conditions: Escherichia coli; E. coli ELZ4000, MDR clinical isolate; read-out: MIC ELZ4000
[4] = tested on: E. coli ELZ4251 (MDR clinical isolate); assay: Antibacterial activity, MIC, MDR E. coli ELZ4251; type: cell-based, Escherichia coli; conditions: Escherichia coli, E. coli ELZ4251, MDR clinical isolate; read-out: MIC ELZ4251
[5] = tested on: quinolone resistant E. coli LZ3111; assay: Antibacterial activity, MIC, quinolone resistant E. coli LZ3111; type: cell-based, Escherichia coli; conditions: Escherichia coli, read-out: MIC, LZ3111
Text: (§1) The antibacterial activity from a microbroth dilution method may be presented as the minimum inhibitory concentration (MIC in […]). The MIC value is the lowest concentration of a drug which prevents macroscopically visible bacterial growth under test conditions.
Mutations in these regions are known to confer a high level resistance to the quinolone class of antibiotics.

[6] = tested on: control Gram-negative E. coli 25922 strain; assay: Antibacterial activity, microbroth dilution MIC, E. coli 25922; type: cell-based, Escherichia coli; conditions: Escherichia coli; E. coli 25922, microbroth dilution; read-out: MIC, 25922
[7] = tested on: Pseudomonas aeruginosa (P. aeruginosa) 27853; assay: Antibacterial activity, MIC, P. aeruginosa 27853; type: cell-based; conditions: Pseudomonas aeruginosa, P. aeruginosa 27853; read-out: MIC 27853
Text: as §1
Antibacterial activity of test compounds against the Gram-negative bacterium Pseudomonas aeruginosa (P. aeruginosa) 27853 is shown in Table 5.

[8] = E. coli BAS849, microbroth dilution

SMILES: CCc1cc(C(=O)O)c(=O)[nH]c1-c1ccc(N2C[C@H]3CN(C)C[C@H]3C2)cc1.Cl [Cpd 208, 5-ethyl-6-{4-[(3aR,6aS)-5-methylhexahydropyrrolo[3,4-c]pyrrol-2(1H)-yl]phenyl}-2-oxo-1,2-dihydropyridine-3-carboxylic acid hydrochloride]
- MIC [1, 8]: 1 to 3.5 µg/mL
- MIC [2]: 12.5 to 150 µg/mL
- MIC [3]: 12.5 to 150 µg/mL
- MIC [4]: 12.5 to 150 µg/mL
- MIC [5]: 12.5 to 150 µg/mL
- MIC [6]: 3.5 to 12.5 µg/mL

SMILES: O=C(O)c1cc(C2CC2)c(-c2ccc(N3CCCC3)cc2)[nH]c1=O [Cpd 164, 5-cyclopropyl-2-oxo-6-[4-(pyrrolidin-1-yl)phenyl]-1,2-dihydropyridine-3-carboxylic acid]
- MIC [1, 8]: < 1 µg/mL
- MIC [2]: 3.5 to 12.5 µg/mL (≈ 10.8 to 38.5 µM)
- MIC [3]: 12.5 to 150 µg/mL (≈ 38.5 to 462 µM)
- MIC [4]: 12.5 to 150 µg/mL (≈ 38.5 to 462 µM)
- MIC [5]: 12.5 to 150 µg/mL (≈ 38.5 to 462 µM)
- MIC [6]: 1 to 3.5 µg/mL (≈ 3.08 to 10.8 µM)

SMILES: CCc1cc(C(=O)O)c(=O)[nH]c1-c1ccc(N2C[C@H]3CCC[C@H](N=[N+]=[N-])[C@H]3C2)cc1.O=C(O)C(F)(F)F [Cpd 244, 6-{4-[(3aR,4S,7aS)-4-azidooctahydro-2H-isoindol-2-yl]phenyl}-5-ethyl-2-oxo-1,2-dihydropyridine-3-carboxylic acid trifluoroacetate]
- MIC [1]: < 1 µg/mL
- MIC [2]: 1 to 3.5 µg/mL
- MIC [3]: 12.5 to 150 µg/mL
- MIC [4]: 12.5 to 150 µg/mL
- MIC [5]: 12.5 to 150 µg/mL
- MIC [6]: 12.5 to 150 µg/mL
- MIC [7]: 12.5 to 150 µg/mL

SMILES: CCc1cc(C(=O)O)c(=O)[nH]c1-c1ccc(N(C)c2ccccc2)cc1 [Cpd 158, 5-ethyl-6-{4-[methyl(phenyl)amino]phenyl}-2-oxo-1,2-dihydropyridine-3-carboxylic acid]
- MIC [1, 8]: < 1 µg/mL
- MIC [2]: 3.5 to 12.5 µg/mL (≈ 10 to 35.9 µM)
- MIC [3]: 12.5 to 150 µg/mL (≈ 35.9 to 431 µM)
- MIC [4]: 12.5 to 150 µg/mL (≈ 35.9 to 431 µM)
- MIC [5]: 12.5 to 150 µg/mL (≈ 35.9 to 431 µM)
- MIC [6]: 3.5 to 12.5 µg/mL (≈ 10 to 35.9 µM)
- MIC [7]: 12.5 to 150 µg/mL (≈ 35.9 to 431 µM)

SMILES: CCc1cc(C(=O)O)c(=O)[nH]c1-c1ccc(N2C[C@H]3CC[C@@H](N)[C@H]3C2)cc1.O=C(O)C(F)(F)F [Cpd 202, 6-{4-[(3aR,4R,6aS)-4-aminohexahydrocyclopenta[c]pyrrol-2(1H)-yl]phenyl}-5-ethyl-2-oxo-1,2-dihydropyridine-3-carboxylic acid trifluoroacetate]
- MIC [1]: 1 to 3.5 µg/mL
- MIC [2]: 12.5 to 150 µg/mL
- MIC [3]: 12.5 to 150 µg/mL
- MIC [4]: 12.5 to 150 µg/mL
- MIC [5]: 12.5 to 150 µg/mL
- MIC [6]: 12.5 to 150 µg/mL
- MIC [7]: 12.5 to 150 µg/mL

SMILES: CCc1cc(C(=O)O)c(=O)[nH]c1-c1ccc(N(C)CCN(C)C)cc1 [Cpd 161, 6-(4-{[2-(dimethylamino)ethyl](methyl)amino}phenyl)-5-ethyl-2-oxo-1,2-dihydropyridine-3-carboxylic acid]
- MIC [1, 8]: < 1 µg/mL
- MIC [2]: 12.5 to 150 µg/mL (≈ 36.4 to 437 µM)
- MIC [3]: 12.5 to 150 µg/mL (≈ 36.4 to 437 µM)
- MIC [4]: 12.5 to 150 µg/mL (≈ 36.4 to 437 µM)
- MIC [5]: 12.5 to 150 µg/mL (≈ 36.4 to 437 µM)
- MIC [6]: 1 to 3.5 µg/mL (≈ 2.91 to 10.2 µM)

SMILES: CCc1cc(C(=O)O)c(=O)[nH]c1-c1ccc(N2CCC(CN(C)Cc3ccccc3)C2)cc1.O=C(O)C(F)(F)F (stereo not drawn) [Cpd 183, 6-[4-(3-{[benzyl(methyl)amino]methyl}pyrrolidin-1-yl)phenyl]-5-ethyl-2-oxo-1,2-dihydropyridine-3-carboxylic acid trifluoroacetate]
- MIC [1]: < 1 µg/mL
- MIC [2]: 12.5 to 150 µg/mL
- MIC [3]: 12.5 to 150 µg/mL
- MIC [4]: 12.5 to 150 µg/mL
- MIC [5]: 12.5 to 150 µg/mL
- MIC [6]: 3.5 to 12.5 µg/mL

SMILES: CC(C)c1cc(C(=O)O)c(=O)[nH]c1-c1ccc(N2CCCC2)cc1 [Cpd 163, 5-isopropyl-2-oxo-6-[4-(pyrrolidin-1-yl)phenyl]-1,2-dihydropyridine-3-carboxylic acid]
- MIC [1, 8]: < 1 µg/mL
- MIC [2]: 12.5 to 150 µg/mL (≈ 38.3 to 460 µM)
- MIC [3]: 12.5 to 150 µg/mL (≈ 38.3 to 460 µM)
- MIC [4]: 12.5 to 150 µg/mL (≈ 38.3 to 460 µM)
- MIC [5]: 12.5 to 150 µg/mL (≈ 38.3 to 460 µM)
- MIC [6]: 3.5 to 12.5 µg/mL (≈ 10.7 to 38.3 µM)

SMILES: CCc1cc(C(=O)O)c(=O)[nH]c1-c1ccc(OC)cc1 [Cpd 24, 5-ethyl-6-(4-methoxyphenyl)-2-oxo-1,2-dihydropyridine-3-carboxylic acid]
- MIC [1, 8]: < 1 µg/mL
- MIC [2]: 12.5 to 150 µg/mL (≈ 45.7 to 549 µM)
- MIC [3]: 12.5 to 150 µg/mL (≈ 45.7 to 549 µM)
- MIC [4]: 12.5 to 150 µg/mL (≈ 45.7 to 549 µM)
- MIC [5]: 12.5 to 150 µg/mL (≈ 45.7 to 549 µM)
- MIC [6]: 3.5 to 12.5 µg/mL (≈ 12.8 to 45.7 µM)

SMILES: CCc1cc(C(=O)O)c(=O)[nH]c1-c1ccc(N2CC3NCCOC3C2)cc1.Cl (stereo not drawn) [Cpd 179, 5-ethyl-6-[4-(hexahydropyrrolo[3,4-b][1,4]oxazin-6(2H)-yl)phenyl]-2-oxo-1,2-dihydropyridine-3-carboxylic acid hydrochloride]
- MIC [1, 8]: 1 to 3.5 µg/mL
- MIC [2]: 12.5 to 150 µg/mL
- MIC [3]: 12.5 to 150 µg/mL
- MIC [4]: 12.5 to 150 µg/mL
- MIC [5]: 12.5 to 150 µg/mL
- MIC [6]: 3.5 to 12.5 µg/mL

SMILES: CCc1cc(C(=O)O)c(=O)[nH]c1-c1ccc(N2CC[C@H](N=[N+]=[N-])C2)cc1 [Cpd 130, 6-{4-[(3S)-3-azidopyrrolidin-1-yl]phenyl}-5-ethyl-2-oxo-1,2-dihydropyridine-3-carboxylic acid]
- MIC [1, 8]: < 1 µg/mL
- MIC [2]: 3.5 to 12.5 µg/mL (≈ 9.9 to 35.4 µM)
- MIC [3]: 12.5 to 150 µg/mL (≈ 35.4 to 424 µM)
- MIC [4]: 12.5 to 150 µg/mL (≈ 35.4 to 424 µM)
- MIC [5]: 12.5 to 150 µg/mL (≈ 35.4 to 424 µM)
- MIC [6]: 1 to 3.5 µg/mL (≈ 2.83 to 9.9 µM)

SMILES: CCc1cc(C(=O)O)c(=O)[nH]c1-c1ccc(N2C[C@H]3CN(Cc4ccccc4)C[C@H]3C2)cc1.Cl [Cpd 206, 6-{4-[(3aR,6aS)-5-benzylhexahydropyrrolo[3,4-c]pyrrol-2(1H)-yl]phenyl}-5-ethyl-2-oxo-1,2-dihydropyridine-3-carboxylic acid hydrochloride]
- MIC [1, 8]: 1 to 3.5 µg/mL
- MIC [2]: 12.5 to 150 µg/mL
- MIC [3]: 12.5 to 150 µg/mL
- MIC [4]: 12.5 to 150 µg/mL
- MIC [5]: 12.5 to 150 µg/mL
- MIC [6]: 3.5 to 12.5 µg/mL

SMILES: CCc1c(-c2ccc(N3C[C@H]4CNC[C@H]4C3)cc2)[nH]c(=O)c(C(=O)O)c1O.Cl [Cpd 274, 5-ethyl-6-{4-[(3aR,6aS)-hexahydropyrrolo[3,4-c]pyrrol-2(1H)-yl]phenyl}-4-hydroxy-2-oxo-1,2-dihydropyridine-3-carboxylic acid hydrochloride]
- MIC [1, 8]: 1 to 3.5 µg/mL
- MIC [2]: 12.5 to 150 µg/mL
- MIC [5]: 12.5 to 150 µg/mL
- MIC [6]: 12.5 to 150 µg/mL

SMILES: CCc1cc(C(=O)O)c(=O)[nH]c1-c1ccc(OC)cc1F [Cpd 30, 5-ethyl-6-(2-fluoro-4-methoxyphenyl)-2-oxo-1,2-dihydropyridine-3-carboxylic acid]
- MIC [1, 8]: 1 to 3.5 µg/mL (≈ 3.43 to 12 µM)
- MIC [2]: 12.5 to 150 µg/mL (≈ 42.9 to 515 µM)
- MIC [5]: 12.5 to 150 µg/mL (≈ 42.9 to 515 µM)
- MIC [6]: 12.5 to 150 µg/mL (≈ 42.9 to 515 µM)

SMILES: CCc1c(-c2ccc(N3CCC(C)(O)C3)cc2)[nH]c(=O)c(C(=O)O)c1O (stereo not drawn) [Cpd 289, 5-ethyl-4-hydroxy-6-[4-(3-hydroxy-3-methylpyrrolidin-1-yl)phenyl]-2-oxo-1,2-dihydropyridine-3-carboxylic acid]
- MIC [1, 8]: < 1 µg/mL
- MIC [2]: 1 to 3.5 µg/mL (≈ 2.79 to 9.77 µM)
- MIC [5]: 12.5 to 150 µg/mL (≈ 34.9 to 419 µM)
- MIC [6]: 1 to 3.5 µg/mL (≈ 2.79 to 9.77 µM)

SMILES: CCc1cc(C(=O)O)c(=O)[nH]c1-c1ccc(N2CCC(OC)CC2)cc1 [Cpd 224, 5-ethyl-6-[4-(4-methoxypiperidin-1-yl)phenyl]-2-oxo-1,2-dihydropyridine-3-carboxylic acid]
- MIC [1, 8]: < 1 µg/mL
- MIC [2]: 12.5 to 150 µg/mL (≈ 35.1 to 421 µM)
- MIC [5]: 12.5 to 150 µg/mL (≈ 35.1 to 421 µM)
- MIC [6]: 12.5 to 150 µg/mL (≈ 35.1 to 421 µM)

SMILES: CCc1c(-c2ccc(N3C[C@H](CN(Cc4ccccc4)Cc4ccccc4)[C@@H](C)C3)cc2)[nH]c(=O)c(C(=O)O)c1O [Cpd 249, 6-(4-{(3S,4R)-3-[(dibenzylamino)methyl]-4-methylpyrrolidin-1-yl}phenyl)-5-ethyl-4-hydroxy-2-oxo-1,2-dihydropyridine-3-carboxylic acid]
- MIC [1, 8]: 12.5 to 150 µg/mL (≈ 22.7 to 272 µM)
- MIC [2]: 12.5 to 150 µg/mL (≈ 22.7 to 272 µM)
- MIC [5]: 12.5 to 150 µg/mL (≈ 22.7 to 272 µM)
- MIC [6]: 12.5 to 150 µg/mL (≈ 22.7 to 272 µM)

SMILES: CCc1c(-c2ccc(N3CC4CCCN(C(=O)OC(C)(C)C)C4C3)cc2)[nH]c(=O)c(C(=O)O)c1O (stereo not drawn) [Cpd 253, 6-{4-[1-(tert-butoxycarbonyl)octahydro-6H-pyrrolo[3,4-b]pyridin-6-yl]phenyl}-5-ethyl-4-hydroxy-2-oxo-1,2-dihydropyridine-3-carboxylic acid]
- MIC [1, 8]: < 1 µg/mL
- MIC [2]: 3.5 to 12.5 µg/mL (≈ 7.24 to 25.8 µM)
- MIC [5]: 12.5 to 150 µg/mL (≈ 25.8 to 310 µM)
- MIC [6]: 12.5 to 150 µg/mL (≈ 25.8 to 310 µM)
